Reference: PubChem BioAssay AID1963833 (Molecular Pharmacology Branch, DTP, NCI, 2024)
pIC50: −log10 of the molar value.

Tested on: 883617-216-R-J1-PDC complex spheroid viability
Assay: Anticancer human tumor 883617-216-R-J1-PDC patient-derived bladder carcinoma cell line growth inhibition [POLQ]
Settings: for pIC50: curve of first compound; for viability, T/C: stronger effect = lower value; active = viability on the fitted dose curve at most 10% of control; inactive = the rest
Method in brief: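 Complex spheroid viability model combining PDC tumour cells with endothelial (HUVEC) and MSC stromal cells. Novobiocin, ART-558 or RP6685 were tested singly and in combination with standard and investigational anticancer drugs. Each was titrated in half-log steps from near clinical Cmax, or from 10 microM where Cmax was unknown.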

[1] = second compound 0.0316 µM, first compound 0.0316 µM
[2] = second compound 0.0316 µM, first compound 0.1 µM
[3] = second compound 0.0316 µM, first compound 0.316 µM
[4] = second compound 0.0316 µM, first compound 1 µM
[5] = second compound 0.0316 µM, first compound 3.16 µM
[6] = second compound 0.0316 µM, first compound 10 µM
[7] = second compound 0.1 µM, first compound 0.0316 µM
[8] = second compound 0.1 µM, first compound 0.1 µM
[9] = second compound 0.1 µM, first compound 0.316 µM
[10] = second compound 0.1 µM, first compound 1 µM
[11] = second compound 0.1 µM, first compound 3.16 µM
[12] = second compound 0.1 µM, first compound 10 µM
[13] = second compound 0.316 µM, first compound 0.0316 µM
[14] = second compound 0.316 µM, first compound 0.1 µM
[15] = second compound 0.316 µM, first compound 0.316 µM
[16] = second compound 0.316 µM, first compound 1 µM
[17] = second compound 0.316 µM, first compound 3.16 µM
[18] = second compound 0.316 µM, first compound 10 µM
[19] = second compound 1 µM, first compound 0.0316 µM
[20] = second compound 1 µM, first compound 0.1 µM
[21] = second compound 1 µM, first compound 0.316 µM
[22] = second compound 1 µM, first compound 1 µM
[23] = second compound 1 µM, first compound 3.16 µM
[24] = second compound 1 µM, first compound 10 µM
[25] = second compound 3.16 µM, first compound 0.0316 µM
[26] = second compound 3.16 µM, first compound 0.1 µM
[27] = second compound 3.16 µM, first compound 0.316 µM
[28] = second compound 3.16 µM, first compound 1 µM
[29] = second compound 3.16 µM, first compound 3.16 µM
[30] = second compound 3.16 µM, first compound 10 µM
[31] = second compound 10 µM, first compound 0.0316 µM
[32] = second compound 10 µM, first compound 0.1 µM
[33] = second compound 10 µM, first compound 0.316 µM
[34] = second compound 10 µM, first compound 1 µM
[35] = second compound 10 µM, first compound 3.16 µM
[36] = second compound 10 µM, first compound 10 µM
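Also: spheroids exposed to compounds for seven days before readout.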
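For viability, T/C in this document: 100% = DMSO vehicle control viability.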

COc1cc2cc(C(=O)CCC(=O)O)sc2cc1OC + COC1C(OC(N)=O)C(O)C(Oc2ccc3c(O)c(NC(=O)c4ccc(O)c(CC=C(C)C)c4)c(=O)oc3c2C)OC1(C)C
< 5.00: pIC50 (second compound 0.0316 µM) | pIC50 (second compound 0.1 µM) | pIC50 (second compound 0.316 µM) | pIC50 (second compound 1 µM) | pIC50 (second compound 3.16 µM) | pIC50 (second compound 10 µM)
inactive: viability, T/C [1] 91.3% | viability, T/C [2] 89.1% | viability, T/C [3] 105% | viability, T/C [4] 83.3% | viability, T/C [5] 101% | viability, T/C [6] 90.9% | viability, T/C [7] 113% | viability, T/C [8] 102% | viability, T/C [9] 88.7% | viability, T/C [10] 93.8% | viability, T/C [11] 99.6% | viability, T/C [12] 102% | viability, T/C [13] 89.4% | viability, T/C [14] 83.6% | viability, T/C [15] 92.5% | viability, T/C [16] 93% | viability, T/C [17] 101% | viability, T/C [18] 89.2% | viability, T/C [19] 98.9% | viability, T/C [20] 96.6% | viability, T/C [21] 86.4% | viability, T/C [22] 100% | viability, T/C [23] 90.4% | viability, T/C [24] 98.2% | viability, T/C [25] 94% | viability, T/C [26] 94.1% | viability, T/C [27] 90.7% | viability, T/C [28] 101% | viability, T/C [29] 98.6% | viability, T/C [30] 92.4% | viability, T/C [31] 101% | viability, T/C [32] 98.5% | viability, T/C [33] 88.5% | viability, T/C [34] 93.9% | viability, T/C [35] 84.6% | viability, T/C [36] 101%

O=C(Nc1ccc(O)c(NS(=O)(=O)c2ccc(F)cc2)c1)c1ccc(-c2ccccc2)cc1 + COC1C(OC(N)=O)C(O)C(Oc2ccc3c(O)c(NC(=O)c4ccc(O)c(CC=C(C)C)c4)c(=O)oc3c2C)OC1(C)C
< 5.00: pIC50 (second compound 0.0316 µM) | pIC50 (second compound 0.1 µM) | pIC50 (second compound 0.316 µM) | pIC50 (second compound 1 µM) | pIC50 (second compound 3.16 µM) | pIC50 (second compound 10 µM)
inactive: viability, T/C [1] 95.1% | viability, T/C [2] 90.8% | viability, T/C [3] 83.6% | viability, T/C [4] 84.6% | viability, T/C [5] 95.9% | viability, T/C [6] 64.9% | viability, T/C [7] 81.6% | viability, T/C [8] 100% | viability, T/C [9] 81% | viability, T/C [10] 89.6% | viability, T/C [11] 81.3% | viability, T/C [12] 62.4% | viability, T/C [13] 88.1% | viability, T/C [14] 104% | viability, T/C [15] 83.8% | viability, T/C [16] 90.1% | viability, T/C [17] 89.5% | viability, T/C [18] 53.2% | viability, T/C [19] 86.4% | viability, T/C [20] 86.5% | viability, T/C [21] 93.3% | viability, T/C [22] 90.4% | viability, T/C [23] 81.7% | viability, T/C [24] 62.9% | viability, T/C [25] 88.9% | viability, T/C [26] 96.4% | viability, T/C [27] 97.3% | viability, T/C [28] 73.5% | viability, T/C [29] 77% | viability, T/C [30] 65.7% | viability, T/C [31] 103% | viability, T/C [32] 87.5% | viability, T/C [33] 98.3% | viability, T/C [34] 83.2% | viability, T/C [35] 89.7% | viability, T/C [36] 70.4%

CCc1cc2c(N3CCc4c(cc(Cn5ccnc5)cc4-c4cn(C)nc4C(F)(F)F)C3=O)ccnc2c(OC)n1 + Cc1cccc(N(C)C(=O)C2C(O)CCN2c2nc(C)cc(C(F)(F)F)c2C#N)c1
5.08: pIC50 (second compound 3.16 µM)
< 5.00: pIC50 (second compound 0.0316 µM) | pIC50 (second compound 0.1 µM) | pIC50 (second compound 1 µM)
5.09: pIC50 (second compound 0.316 µM) | pIC50 (second compound 10 µM)
inactive: viability, T/C [1] 91.7% | viability, T/C [2] 103% | viability, T/C [3] 82.1% | viability, T/C [4] 82% | viability, T/C [5] 70% | viability, T/C [6] 53.5% | viability, T/C [7] 93% | viability, T/C [8] 107% | viability, T/C [9] 84.2% | viability, T/C [10] 96.6% | viability, T/C [11] 73.4% | viability, T/C [12] 50.7% | viability, T/C [13] 102% | viability, T/C [14] 104% | viability, T/C [15] 101% | viability, T/C [16] 98% | viability, T/C [17] 76.6% | viability, T/C [18] 43.7% | viability, T/C [19] 98.4% | viability, T/C [20] 101% | viability, T/C [21] 87.8% | viability, T/C [22] 94.4% | viability, T/C [23] 68.2% | viability, T/C [24] 61.1% | viability, T/C [25] 99.6% | viability, T/C [26] 103% | viability, T/C [27] 87.7% | viability, T/C [28] 86.9% | viability, T/C [29] 66.1% | viability, T/C [30] 47% | viability, T/C [31] 115% | viability, T/C [32] 104% | viability, T/C [33] 88.3% | viability, T/C [34] 92.9% | viability, T/C [35] 76.6% | viability, T/C [36] 42.6%
